Where “and” joins values, the source holds several entries; their conditions need not be identical. Identical values can stand only once. Like-named read-outs stand apart in the source and are kept apart here.
Target: T1, GPR139 (arrestin-3 recruitment) (Homo sapiens, UniProt Q6DWJ6)
T1 construct: expressed in transfected cells; host or cells: HEK293A (transient, Lipofectamine 2000)
T1 sequence (Q6DWJ6 1-353): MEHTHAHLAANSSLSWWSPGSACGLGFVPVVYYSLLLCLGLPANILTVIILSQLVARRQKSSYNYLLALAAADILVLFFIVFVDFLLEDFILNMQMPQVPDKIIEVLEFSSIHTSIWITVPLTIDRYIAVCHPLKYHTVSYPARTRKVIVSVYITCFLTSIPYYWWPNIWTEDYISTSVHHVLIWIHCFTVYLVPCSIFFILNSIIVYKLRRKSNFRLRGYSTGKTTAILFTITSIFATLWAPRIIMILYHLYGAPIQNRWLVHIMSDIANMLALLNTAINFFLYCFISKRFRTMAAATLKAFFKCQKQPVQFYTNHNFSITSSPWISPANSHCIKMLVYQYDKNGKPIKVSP
Assay: Arrestin-3 recruitment assay (enhanced bystander BRET), HEK293A
Type: cell-based
Details: for Emax: HEK293-A, normalized to JNJ-63533054 (JNJ(S)); for EC50: read-out: pEC50 Arrestin-3 (converted); for Arrestin-3 recruitment: individual replicates
Method: Primary screening and pharmacological characterization of compounds were performed using a CHO-K1 cell line that stably expresses human GPR139 (GPR139-CHOk1). The GPR139-CHOk1 cell line was kindly provided by H. Lundbeck A/S, Denmark[24]. GPR139-CHOk1 cells were grown in Ham’s F-12 Kaighn’s Modification Medium (ThermoFisher #21127030) supplemented with 10% dialyzed fetal bovine serum (US origin, ThermoFisher #26400044), 100 units/mL Penicillin-Streptomycin (ThermoFisher #15140122), and 1 mg/mL Geneticin (ThermoFisher #11811031). […] M1R-CHOk1 cells were purchased from The Missouri S&T cDNA Resource Center (#CEM100TN00). M1R-CHOk1 cells were grown in Ham’s F12 Medium (ThermoFisher #21765029) supplemented with 10% fetal bovine serum (Brazilian origin, ThermoFisher #10270106), 100 units/mL Penicillin-Streptomycin, and 0.25 mg/mL Geneticin. HEK293A cells transiently transfected with GPR139 were used for additional pharmacological assessment of signaling pathways activated by GPR139. HEK239A cells were generously provided by Dr. Asuka Inoue, Tohoku University, Japan. HEK293A cells were grown in Dulbecco’s Modified Eagle Medium (ThermoFisher #31966047) supplemented with 10% dialyzed fetal bovine serum and 100 units/mL Penicillin-Streptomycin. Cell lines were maintained at 37 °C in humidified incubator equilibrated with 5% CO2.
The enhanced bystander BRET arrestin recruitment assay developed by the work of Donthamsetti et al.[58] was used to measure the arrestin-3 recruitment by GPR139. HEK293A cells were reverse transfected 20–24 h prior to the assay. 50,000 cells were plated in each well of white opaque tissue culture treated 96-well plates (PerkinElmer #6005680) previously coated with poly-D-lysine. The transfection solutions were prepared as described, and 10 µL transfection solution was mixed with 100 µL cells in each well. The cells in each well were transfected with 6 ng GPR139, 0.6 ng RLuc8-Arrestin3-Sp1, 6 ng GRK5, and 62.5 ng MEMlinker[doubly palmitoylated fragment of GAP43]-Citrine-SH3 using 200 nL Lipofectamine 2000 Transfection Reagent. Each transfection was normalized to 80 ng total DNA with pcDNA3.1. On the day of the experiment, the cells were washed with HEPES buffer and incubated for 2 h in HEPES buffer prior to measurements. Test compounds were diluted in HEPES buffer from DMSO stocks (final DMSO concentration of maximally 0.3%). Renilla luciferase 8 (RLuc8) substrate Coelenterazine h (Cayman Chemical #16894) was diluted in HEPES buffer to 5 µM (final). Coelenterazine h was added, and the cells were incubated for 5 min followed by stimulation with test compounds. Simultaneous dual emission was measured at 535 nm and 475 nm on LUMIstar Omega Microplate Reader (BMG Labtech) at 37 °C over 30 min. The BRET ratio of 535 nm/475 nm (Citrine/RLuc8), reflecting the translocation of arrestin from the cytosol to the membrane, was used to determine the arrestin recruitment. The BRET response-time course area under the curve of the basal response obtained with buffer condition was subtracted from the absolute response at a given test compound concentration, and the responses were normalized to the one obtained with 10 µM JNJ-63533054.
Pharmacological data and statistical analyses were performed in GraphPad Prism v9–10 (Graphpad Software Inc., San Diego, CA), which are also specifically described in the figure and table legends. The functional assay responses were normalized to buffer (0%) and Lundbeck Cmp 1a or JNJ-63533054 (100%), for Ca^2+ and IP1 experiments in the GPR139-CHOk1 stable cell line or Ca^2+, G protein activation, and arrestin-3 recruitment experiments in the HEK293A cells transiently transfected with GPR139, respectively. Data are from at least three independent experiments, unless stated otherwise. Concentration-response curves were fitted applying non-linear regression using the log (agonist) versus response model with variable slope. ANOVA was applied for comparing results and determining statistical significance. […]

| Emax | EC50 (Supplementary Table 6) | EC50 | Structure (SMILES) | Arrestin-3 recruitment (log [compound] M -4.5) | Arrestin-3 recruitment (log [compound] M -5.0) | Arrestin-3 recruitment (log [compound] M -5.5) | Arrestin-3 recruitment (log [compound] M -6.0) | Arrestin-3 recruitment (log [compound] M -6.5) | Arrestin-3 recruitment (log [compound] M -7.0) | Arrestin-3 recruitment (log [compound] M -7.5) | Arrestin-3 recruitment (log [compound] M -4.5, listed as JNJ (S)) | Arrestin-3 recruitment (log [compound] M -5.0, listed as JNJ (S)) | Arrestin-3 recruitment (log [compound] M -5.5, listed as JNJ (S)) | Arrestin-3 recruitment (log [compound] M -6.0, listed as JNJ (S)) | Arrestin-3 recruitment (log [compound] M -6.5, listed as JNJ (S)) | Arrestin-3 recruitment (log [compound] M -7.0, listed as JNJ (S)) | Arrestin-3 recruitment (log [compound] M -7.5, listed as JNJ (S)) |
| --- | --- | --- | --- | --- | --- | --- | --- | --- | --- | --- | --- | --- | --- | --- | --- | --- | --- |
| 81 ± 5% | 2510 nM | – | Cc1cscc1-c1nc(CC(=O)N[C@H](C)c2ccccc2)no1 [1.1(R)] | 72 % of JNJ-63533054 and 73 % of JNJ-63533054 and 89 % of JNJ-63533054 | 69 % of JNJ-63533054 and 65 % of JNJ-63533054 (2×) | 54 % of JNJ-63533054 and 40 % of JNJ-63533054 and 41 % of JNJ-63533054 | 36 % of JNJ-63533054 and 10 % of JNJ-63533054 and 17 % of JNJ-63533054 | 17 % of JNJ-63533054 and 3.28 % of JNJ-63533054 and 1.44 % of JNJ-63533054 | 12 % of JNJ-63533054 and 3.28 % of JNJ-63533054 and 2 % of JNJ-63533054 | 1.13 % of JNJ-63533054 and 0.124 % of JNJ-63533054 and 0.145 % of JNJ-63533054 | – | – | – | – | – | – | – |
| 96 ± 1% | 79.4 nM | – | Cc1cscc1-c1nc(CC(=O)N[C@@H](C)c2ccccc2)no1 [1.1(S)] | 96 % of JNJ-63533054 and 88 % of JNJ-63533054 and 101 % of JNJ-63533054 | 90 % of JNJ-63533054 and 91 % of JNJ-63533054 (2×) | 89 % of JNJ-63533054 and 102 % of JNJ-63533054 and 91 % of JNJ-63533054 | 109 % of JNJ-63533054 and 107 % of JNJ-63533054 and 84 % of JNJ-63533054 | 82 % of JNJ-63533054 and 87 % of JNJ-63533054 and 66 % of JNJ-63533054 | 57 % of JNJ-63533054 and 71 % of JNJ-63533054 and 50 % of JNJ-63533054 | 23 % of JNJ-63533054 and 32 % of JNJ-63533054 and 4.63 % of JNJ-63533054 | – | – | – | – | – | – | – |
| – | – | 15800 nM | C[C@@H](NC(=O)CNC(=O)c1cccc(Cl)c1)c1ccccc1 [JNJ(R), reference compound] | 43 % of JNJ-63533054 and 70 % of JNJ-63533054 and 77 % of JNJ-63533054 | 41 % of JNJ-63533054 and 39 % of JNJ-63533054 and 33 % of JNJ-63533054 | 37 % of JNJ-63533054 and 35 % of JNJ-63533054 and 17 % of JNJ-63533054 | 20 % of JNJ-63533054 and 22 % of JNJ-63533054 and 12 % of JNJ-63533054 | 14 % of JNJ-63533054 and 8 % of JNJ-63533054 and 1.75 % of JNJ-63533054 | 4 % of JNJ-63533054 and 10 % of JNJ-63533054 and 2 % of JNJ-63533054 | 0 % of JNJ-63533054 (2×) and 0.153 % of JNJ-63533054 | – | – | – | – | – | – | – |
| 100 ± 4% | 158 nM | – | CC(NC(=O)CNC(=O)c1cccc(Cl)c1)c1ccccc1 (centres unmarked) [JNJ-63533054, reference compound] | – | – | – | – | – | – | – | 94 % of JNJ-63533054 and 101 % of JNJ-63533054 and 107 % of JNJ-63533054 | 95 % of JNJ-63533054 and 99 % of JNJ-63533054 and 103 % of JNJ-63533054 | 90 % of JNJ-63533054 and 100 % of JNJ-63533054 and 94 % of JNJ-63533054 | 85 % of JNJ-63533054 and 100 % of JNJ-63533054 and 78 % of JNJ-63533054 | 68 % of JNJ-63533054 and 81 % of JNJ-63533054 and 55 % of JNJ-63533054 | 45 % of JNJ-63533054 (2×) and 36 % of JNJ-63533054 | 8 % of JNJ-63533054 and 15 % of JNJ-63533054 and 0.123 % of JNJ-63533054 |
